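A five-concentration, 48-hour dose response in 96-well plates underlies each endpoint, interpolated linearly between surrounding concentrations. At the TGI there is no net growth.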

Among the test systems are COLO 205 colon; HCT-15 colon; HT29 colon; MCF7 breast; OVCAR-4 ovarian; OVCAR-5 ovarian; RPMI-8226 leukemia; RXF 393 renal; U251 CNS; UO-31 renal.
Common to all, as to assay: NCI anticancer screen, dose series, 48 h

Regarding `CN1CCN(c2nc3c(c(=O)n(C)c(=O)n3C)n2C)CC1`, the TGI in the assay with COLO 205 colon, with HCT-15 colon, in the assay on HT29 colon, with MCF7 breast, in the assay on OVCAR-4 ovarian and in the assay on OVCAR-5 ovarian was above 100 µM each time. Further, the TGI in the assay on RPMI-8226 leukemia, with RXF 393 renal, with U251 CNS and in the assay with UO-31 renal was above 100 µM in each case.
As for `CCC1(CC)C(=O)N(C(=O)c2ccc(Cl)cc2)N(C(=O)c2ccccc2Cl)C1=O`, the TGI in the assay with COLO 205 colon is above 100 µM; in the assay with HCT-15 colon, above 100 µM; in the assay on HT29 colon, 22.6 µM; in the assay with MCF7 breast it was above 100 µM; in the assay on OVCAR-4 ovarian it was above 100 µM; in the assay on OVCAR-5 ovarian, above 100 µM. Besides, the TGI in the assay on RPMI-8226 leukemia is 78.9 µM; in the assay with RXF 393 renal it was above 100 µM; in the assay with U251 CNS it was above 100 µM; in the assay with UO-31 renal, above 100 µM.
`O=C1NC(N2CCCC(CO)C2)=N/C1=C\c1ccc(O)cc1` (stereo not given): the TGI in the assay with COLO 205 colon, in the assay with HCT-15 colon, with HT29 colon, with MCF7 breast, with OVCAR-4 ovarian and with OVCAR-5 ovarian was above 100 µM each time. Further, the TGI with RPMI-8226 leukemia, with RXF 393 renal, with U251 CNS and with UO-31 renal was above 100 µM each time.
`Clc1ccc(CCn2ccc3ccccc32)c(Cl)c1`: the TGI with COLO 205 colon, with HCT-15 colon, in the assay on HT29 colon, in the assay on MCF7 breast, in the assay on OVCAR-4 ovarian and in the assay on OVCAR-5 ovarian was above 100 µM throughout. Also, the TGI with RPMI-8226 leukemia, in the assay with RXF 393 renal, with U251 CNS and in the assay on UO-31 renal was above 100 µM in each case.
With `Nc1c2ccccc2nc2ccc(C(=O)Nc3ccc(S(N)(=O)=O)cc3)cc12`, the TGI in the assay on COLO 205 colon, in the assay with HCT-15 colon, in the assay on HT29 colon, in the assay on MCF7 breast, in the assay with OVCAR-4 ovarian and in the assay with OVCAR-5 ovarian was above 100 µM in each case. The TGI with RPMI-8226 leukemia, in the assay with RXF 393 renal, in the assay on U251 CNS and with UO-31 renal was above 100 µM each time.
As for `COc1ccc(/C=N/NC(=O)c2ccccc2Nc2ccccc2C(=O)N/N=C/c2ccc(OC)c(OC)c2)cc1OC`, the TGI in the assay with COLO 205 colon, with HCT-15 colon, in the assay with HT29 colon, in the assay with MCF7 breast, with OVCAR-4 ovarian and in the assay with OVCAR-5 ovarian was above 100 µM in each case. Also, the TGI in the assay on RPMI-8226 leukemia, in the assay with RXF 393 renal, in the assay with U251 CNS and in the assay with UO-31 renal was above 100 µM in each case.
As to `Cc1ccc(-c2cn3c(nc4ccccc43)c(C)n2)cc1`, the TGI in the assay on COLO 205 colon, in the assay with HCT-15 colon, in the assay with HT29 colon, with MCF7 breast, in the assay on OVCAR-4 ovarian and in the assay with OVCAR-5 ovarian was above 100 µM each time. Also, the TGI with RPMI-8226 leukemia is above 100 µM; in the assay with RXF 393 renal it was above 64.4 µM; in the assay on U251 CNS, above 87.7 µM; in the assay on UO-31 renal, above 30.1 µM.
With `COC[C@H](Cc1ccccc1)N=Cc1ccccc1`, the TGI in the assay on COLO 205 colon, in the assay on HCT-15 colon, in the assay on HT29 colon, in the assay with MCF7 breast, with OVCAR-4 ovarian and with OVCAR-5 ovarian was above 100 µM each time. Besides, the TGI with RPMI-8226 leukemia, in the assay on RXF 393 renal, in the assay with U251 CNS and in the assay with UO-31 renal was above 100 µM each time.
For the compound `CC(C)(C)C(=O)C(C#N)C(=O)C(C)(C)C`, the TGI with COLO 205 colon, with HCT-15 colon, in the assay on HT29 colon, with MCF7 breast, with OVCAR-4 ovarian and in the assay on OVCAR-5 ovarian was above 100 µM each time. For the same compound, the TGI in the assay with RPMI-8226 leukemia, in the assay on RXF 393 renal, in the assay with U251 CNS and with UO-31 renal was above 100 µM throughout.
In the case of `c1ccc(C2(c3cc4ccccc4[nH]3)OCCO2)cc1`, the TGI was 65.2 µM with COLO 205 colon; above 100 µM with HCT-15 colon; above 100 µM with HT29 colon; above 100 µM with MCF7 breast; above 100 µM in the assay on OVCAR-4 ovarian; above 100 µM in the assay on OVCAR-5 ovarian. Also, the TGI in the assay on RPMI-8226 leukemia, in the assay on RXF 393 renal, in the assay on U251 CNS and with UO-31 renal was above 100 µM throughout.
Regarding `CC(C)Oc1c(O)c2c3c(oc(=O)n3C=CC2c2ccccc2F)c1OC(C)C` (stereo not given), the TGI with COLO 205 colon was 36.6 µM; in the assay on HCT-15 colon it was above 100 µM; with HT29 colon it was 54.1 µM; in the assay with MCF7 breast, above 100 µM; in the assay on OVCAR-4 ovarian, above 100 µM; with OVCAR-5 ovarian, 42.9 µM. Further, the TGI with RPMI-8226 leukemia is 51.9 µM; in the assay on RXF 393 renal, 81.5 µM; in the assay with U251 CNS it was above 100 µM; in the assay with UO-31 renal it was above 100 µM.
Turning to `O=C1N[C@@H](c2c[nH]c3ccc(Br)cc23)C(=O)N[C@H]1c1c[nH]c2ccc(Br)cc12`, the TGI in the assay on COLO 205 colon is 20 µM; with HCT-15 colon it was 37 µM; in the assay with HT29 colon, 20.2 µM; in the assay with MCF7 breast it was 35.2 µM; with OVCAR-4 ovarian it was 24 µM; in the assay with OVCAR-5 ovarian it was 28.8 µM. In addition, the TGI was 38.2 µM in the assay on RPMI-8226 leukemia, 43.4 µM in the assay with RXF 393 renal, 21.9 µM with U251 CNS and 45 µM with UO-31 renal.
For the compound `O=c1n(CCO)nc2n1CCCN2`, the TGI in the assay with COLO 205 colon, with HCT-15 colon, with HT29 colon, in the assay with MCF7 breast, in the assay on OVCAR-4 ovarian and in the assay with OVCAR-5 ovarian was above 100 µM in each case. Besides, the TGI in the assay on RPMI-8226 leukemia, in the assay with RXF 393 renal, with U251 CNS and with UO-31 renal was above 100 µM throughout.
Regarding `CCC(c1ccc(N(C)C)cc1)C1NC(=S)NC1=O` (stereo not given), the TGI with COLO 205 colon, in the assay with HCT-15 colon, in the assay with HT29 colon, with MCF7 breast, in the assay with OVCAR-4 ovarian and in the assay with OVCAR-5 ovarian was above 100 µM in each case. Also, the TGI in the assay with RPMI-8226 leukemia, with RXF 393 renal, with U251 CNS and in the assay with UO-31 renal was above 100 µM throughout.

The record behind these values is PubChem BioAssay (NCI).
